# From article PMC8757608 (Journal of Enzyme Inhibition and Medicinal Chemistry, 2022)
# Where two headings read alike, the source gives them in different places.
# Assays:
# [1] = test system: DU-145 cell lines; test: DNA-flow cytometry cell cycle analysis, DU-145; format: cell-based, human; conditions: DU-145, 24 h at IC50
# [2] = test system: MCF7 cell lines; test: DNA-flow cytometry cell cycle analysis, MCF7; format: cell-based, human; conditions: MCF7, 24 h at IC50
# [3] = test system: MCF-7 cells; test: Annexin V-FITC apoptosis assay, MCF-7; format: cell-based, human; conditions: MCF-7 cells exposed to IC50, 24 h; for percentage of annexin V-FITC positive apoptotic cells (UR + LR): vehicle control 2.0%
# [4] = test system: full NCI 60-cell panel; test: NCI-60 single dose screen, statements over several cell lines; format: cell-based, human; conditions: for inhibition at 10 µM: Homo sapiens
# [5] = test system: MCF-7 breast cancer cell line; test: MTT assay for cell viability, MCF7; format: cell-based; conditions: Homo sapiens, MCF7, read-out: Cytotoxicity IC50 (µM ± SE) MCF7, MTT assay, MCF7
# [6] = test system: DU-145 cells; test: Annexin V-FITC apoptosis assay, DU-145; format: cell-based, human; conditions: DU-145 cells exposed to IC50, 24 h; for percent of annexin V-FITC positive apoptotic cells (UR + LR): vehicle control 1.7%
# [7] = test system: NCI-H522 (non-small cell lung cancer); test: NCI-60 single dose screen, NCI-H522; format: cell-based; conditions: Homo sapiens, NCI-H522, read-out: inhibitory activity (cell growth inhibition)
# [8] = test system: DU-145 (prostate cancer); test: NCI-60 single dose screen, DU-145; format: cell-based; conditions: Homo sapiens, DU-145, read-out: percent growth inhibition
# [9] = test system: LOX IMVI (melanoma); test: NCI-60 single dose screen, LOX IMVI; format: cell-based; conditions: Homo sapiens, read-out: percent growth inhibition
# [10] = test system: MCF7 (breast cancer); test: NCI-60 single dose screen, MCF7; format: cell-based; conditions: Homo sapiens, MCF7, read-out: percent growth inhibition
# [11] = test system: IGROV1 (ovarian cancer); test: NCI-60 single dose screen, IGROV1; format: cell-based; conditions: Homo sapiens, IGROV-1, read-out: percent growth inhibition
# [12] = test system: SR (leukemia); test: NCI-60 single dose screen, SR; format: cell-based; conditions: Homo sapiens, read-out: percent growth inhibition
# [13] = 60 cell, read-out: cell growth inhibition
structure (smiles),measurement,setting,value
"O=c1ccn(Cc2cn(-c3c4ccccc4nc4ccccc34)nn2)c(=O)[nH]1 [Compound 9, 1-((1-(Acridin-9-yl)-1H-1,2,3-triazol-4-yl)methyl)pyrimidine-2,4(1H,3H)–dione]",%G1,[1],41.5%
same,%G2/M,[1],29.1%
same,%G2/M,[2],39.8%
same,increase of annexin V-FITC positive apoptotic cells compared with vehicle control,[3],6.4 fold
same,percentage of annexin V-FITC positive apoptotic cells (UR + LR),[3],13%
same,inhibition at 10 µM,[4]; [13],61 to 97%
same,inhibition at 10 µM,[4]; read-out: cell growth inhibition,61.3 to 67%
COc1cccc2c1C(=O)c1c(O)c3c(c(O)c1C2=O)C[C@@](O)(C(=O)CO)C[C@@H]3O[C@H]1C[C@H](N)[C@H](O)[C@H](C)O1 [Doxorubicin],IC50,[5],2 µM
"CCCC(CCC)C(=O)OCc1cn(-c2c3ccccc3nc3ccccc23)nn1 [Compound 12, 1-(1-(Acridin-9-yl)-1H-1,2,3-triazol-4-yl)methyl valproate]",cell growth inhibition (in words),"[4]; against all cancer cell lines, single dose of 10 μM",either low or complete absence of cell growth inhibition
"O=C1NC(c2ccccc2)(c2ccccc2)C(=O)N1Cc1cn(-c2c3ccccc3nc3ccccc23)nn1 [Compound 10, 3-((1-(Acridin-9-yl)-1H-1,2,3-triazol-4-yl)methyl)-5,5-diphenylimidazolidine-2,4-dione]",%G1,[1],42.9%
same,%G2/M,[1],20.9%
same,%G1,[2],43.5%
same,%G2/M,[2],15.3%
same,%Pre-G1,[2],13.2%
same,rise of annexin V-FITC positive apoptotic cells compared with vehicle control,[6],2 fold
same,percent of annexin V-FITC positive apoptotic cells (UR + LR),[6],3.6%
same,increase of annexin V-FITC positive apoptotic cells compared with vehicle control,[3],5.3 fold
same,percentage of annexin V-FITC positive apoptotic cells (UR + LR),[3],10.7%
same,inhibition at 10 µM,[7],84.1%
same,inhibition at 10 µM,[4]; [13],61 to 97%
same,inhibition at 10 µM,[4]; read-out: cell growth inhibition percent,60.8 to 68.6%
"Cc1cc(=O)[nH]c(=O)n1Cc1cn(-c2c3ccccc3nc3ccccc23)nn1 [Compound 8, 1-((1-(Acridin-9-yl)-1H-1,2,3-triazol-4-yl)methyl)-6-methylpyrimidine-2,4(1H,3H)-dione]",%G1,[1],34.6%
same,%G2/M,[1],39.6%
same,%Pre-G1,[1],12.9%
same,%G1,[2],24.4%
same,%G2/M,[2],48.3%
same,%Pre-G1,[2],24.4%
same,inhibition at 10 µM,[8],84.3%
same,inhibition at 10 µM,[9],84.8%
same,rise of annexin V-FITC positive apoptotic cells compared with vehicle control,[6],sixfold
same,percent of annexin V-FITC positive apoptotic cells (UR + LR),[6],10.2%
same,increase of annexin V-FITC positive apoptotic cells compared with vehicle control,[3],10 fold
same,percentage of annexin V-FITC positive apoptotic cells (UR + LR),[3],20.3%
same,inhibition at 10 µM,[10],97.5%
same,inhibition at 10 µM,[11],67%
same,inhibition at 10 µM,[12],88.6%
same,inhibition at 10 µM,[4]; [13],61 to 97%
